In patent US12227480B1 (priority 2023, dated 2025) one finds MIC data, which are given here for one molecule.

Assay [1] concerns Mycobacterium tuberculosis MDR strain. Briefly: microbe, parasite or virus in culture. In kind it is cell-based. The note with it: read-out: Anti-tubercular activity against Mycobacterium tuberculosis (MIC), MDR.
The test system of assay [2] is Mycobacterium tuberculosis XDR strain. The assay can be described thus: microbe, parasite or virus in culture. In kind it is cell-based. The note with it: read-out: Anti-tubercular activity against Mycobacterium tuberculosis (MIC), XDR.

For `Cc1cc[n+](CC(=O)c2ccc(F)cc2)cc1.[Br-]` [Compound 3d, 1-(2-(4-Fluorophenyl)-2-oxoethyl)-4-methylpyridin-1-ium bromide], the MIC in assay [1] was determined as 8 mg/L; in assay [2] it was 32 mg/L.
